Experimental data from ChEMBL document CHEMBL1201862, “PubChem BioAssay data set” (2004).
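Results reflect a 48-hour exposure of cells in 96-well plates to compound at five concentrations. At the GI50, growth is halved.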 Calls of active or inactive are those of the source. No stated cut-off is given here; in the data, active = GI50 up to about 1.1 µM and inactive = higher.

What was measured:
Experiment in all cases: growth of human tumour cells (NCI), 48 h
[1] = system: OVCAR-3
[2] = system: NCI-H522
[3] = system: SK-OV-3
[4] = system: MOLT-4
[5] = system: TK-10
[6] = system: NCI-H226
[7] = system: CCRF-CEM
[8] = system: Malme-3M
[9] = system: UACC-62
[10] = system: COLO 205
[11] = system: NCI-H23
[12] = system: ACHN
[13] = system: LOX IMVI
[14] = system: SK-MEL-2
[15] = system: HL-60
[16] = system: HCT-15
[17] = system: DU-145
[18] = system: NCI/ADR-RES
[19] = system: PC-3

Structure (SMILES)	GI50 [1]	GI50 [2]	GI50 [3]	GI50 [4]	GI50 [5]	GI50 [6]	GI50 [7]	GI50 [8]	GI50 [9]	GI50 [10]	GI50 [11]	GI50 [12]	GI50 [13]	GI50 [14]	GI50 [15]	GI50 [16]	GI50 [17]	GI50 [18]	GI50 [19]
C/C=C/C=N/N(C(=O)c1cc([N+](=O)[O-])cc([N+](=O)[O-])c1)C1=NN=C(c2ccccc2)C(c2ccccc2)N1 (configuration not stated)	23.4 µM (inactive)	21.4 µM (inactive)	> 100 µM (inactive)	25.7 µM (inactive)	> 100 µM (inactive)	> 100 µM (inactive)	36.7 µM (inactive)	25.6 µM (inactive)	51.8 µM (inactive)	30.5 µM (inactive)	26.9 µM (inactive)	97.5 µM (inactive)	78.5 µM (inactive)	74 µM (inactive)	18.6 µM (inactive)	41.4 µM			
CCCCCCCCCCCC(=O)OCCOCCOCCOCCOCCOC(=O)CCCCCCCCCCC	> 100 µM (inactive)	> 100 µM (inactive)	> 100 µM (inactive)	> 100 µM (inactive)	> 100 µM (inactive)	> 100 µM (inactive)	> 100 µM (inactive)	> 100 µM (inactive)	56.2 µM (inactive)	> 100 µM (inactive)	> 100 µM (inactive)	> 100 µM (inactive)	> 100 µM (inactive)	> 100 µM (inactive)	37.6 µM (inactive)	> 100 µM			
CC(=O)/N=C1\NC(=O)/C(=C/c2ccc(Cl)cc2Cl)N1C	96.4 µM (inactive)	> 100 µM (inactive)	> 100 µM (inactive)	7.76 µM (inactive)	> 100 µM (inactive)	6.81 µM (inactive)	3.44 µM (inactive)		9.04 µM (inactive)	> 100 µM (inactive)	> 100 µM (inactive)	> 100 µM (inactive)	17.6 µM (inactive)	> 100 µM (inactive)	0.277 µM (active)	27.9 µM	60.4 µM (inactive)	21.7 µM (inactive)	> 100 µM (inactive)
COC(=O)C(C(=O)C(=O)Nc1c(Cl)cc([N+](=O)[O-])cc1Cl)c1nc2cc(C)c(C)cc2nc1O (configuration not stated)	> 100 µM (inactive)	> 100 µM (inactive)	> 100 µM (inactive)	> 100 µM (inactive)	> 100 µM (inactive)	> 100 µM (inactive)	> 100 µM (inactive)	> 100 µM (inactive)	59.2 µM (inactive)	> 100 µM (inactive)	> 100 µM (inactive)	> 100 µM (inactive)	> 100 µM (inactive)	> 100 µM (inactive)	> 100 µM (inactive)	> 100 µM			
COc1ccc(C2=C3c4cc(OC)c(OC)cc4CCN3C(=S)SS2)cc1OC	> 100 µM (inactive)	50.1 µM (inactive)	> 100 µM (inactive)	> 100 µM (inactive)	> 100 µM (inactive)	> 100 µM (inactive)	46.5 µM (inactive)	24 µM (inactive)	22 µM (inactive)	> 100 µM (inactive)	50.7 µM (inactive)	54.8 µM (inactive)	40.8 µM (inactive)	57 µM (inactive)	24.4 µM (inactive)	77.6 µM			
C=CC(=O)NC(=N)NC#N	169 µM (inactive)	18 µM (inactive)	175 µM (inactive)		142 µM (inactive)	200 µM (inactive)	22.6 µM (inactive)	145 µM (inactive)	157 µM (inactive)	149 µM (inactive)	188 µM (inactive)	121 µM (inactive)	> 74.6 µM (inactive)	> 100 µM (inactive)	26.9 µM (inactive)	120 µM		> 100 µM (inactive)	
CCc1nc2cc(F)ccc2[nH]c1=O	> 100 µM (inactive)		> 100 µM (inactive)	> 100 µM (inactive)	> 100 µM (inactive)	> 100 µM (inactive)	> 100 µM (inactive)	> 100 µM (inactive)	38.7 µM (inactive)	> 100 µM (inactive)	> 100 µM (inactive)	> 100 µM (inactive)	> 100 µM (inactive)	> 100 µM (inactive)	> 100 µM (inactive)	> 100 µM	65.5 µM (inactive)	> 100 µM (inactive)	> 100 µM (inactive)
O=C(Nc1cc(C(F)(F)F)ccc1Cl)C(=O)C(C(=O)c1ccc2ccccc2c1)C1OC(=O)c2ccccc21 (configuration not stated)	13.9 µM (inactive)	4.29 µM (inactive)	31.3 µM (inactive)	2.09 µM (inactive)	20.7 µM (inactive)	0.881 µM (active)	4.11 µM (inactive)	11.6 µM (inactive)	7.26 µM (inactive)	10.4 µM (inactive)	5.26 µM (inactive)	17 µM (inactive)	6.32 µM (inactive)	12.6 µM (inactive)	11 µM (inactive)	6.32 µM			
